# Results taken from patent publication US8153784B2, “Imaging of enzyme activity” (The General Hospital Corporation, priority 2004, dated 2012).
# Experiments:
# MPO [1] = target: T1, MPO (Homo sapiens, UniProt P05164); experiment: Ga-3 as oxidoreductase reducing substrate, UV-visible spectra with MPO; format: biochemical
# T1 sequence (P05164 49-745): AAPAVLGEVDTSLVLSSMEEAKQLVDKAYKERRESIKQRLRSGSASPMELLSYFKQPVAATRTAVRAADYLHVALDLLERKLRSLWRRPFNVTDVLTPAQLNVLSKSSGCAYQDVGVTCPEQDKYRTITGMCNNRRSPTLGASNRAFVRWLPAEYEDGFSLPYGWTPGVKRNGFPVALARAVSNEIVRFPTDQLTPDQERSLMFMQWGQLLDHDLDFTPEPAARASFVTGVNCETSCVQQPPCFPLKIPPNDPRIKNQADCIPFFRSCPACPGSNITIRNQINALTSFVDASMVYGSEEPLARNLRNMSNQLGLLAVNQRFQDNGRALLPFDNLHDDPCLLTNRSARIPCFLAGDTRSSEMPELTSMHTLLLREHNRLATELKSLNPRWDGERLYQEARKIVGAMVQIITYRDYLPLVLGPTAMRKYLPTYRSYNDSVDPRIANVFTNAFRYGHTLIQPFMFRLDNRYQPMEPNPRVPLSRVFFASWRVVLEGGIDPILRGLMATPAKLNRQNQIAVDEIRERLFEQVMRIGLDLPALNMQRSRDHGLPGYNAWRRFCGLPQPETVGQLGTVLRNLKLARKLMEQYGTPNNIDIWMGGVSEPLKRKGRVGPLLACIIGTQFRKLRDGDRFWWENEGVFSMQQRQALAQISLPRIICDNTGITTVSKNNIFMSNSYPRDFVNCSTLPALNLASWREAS
# From the text: (§1) Compound Ga-3 was further tested in vitro as an oxidoreductase reducing substrate. In a preliminary experiment, horseradish peroxidase (HRP), a model oxidoreductase, was used to test the possibility of enzyme-induced oligomerization. […] Well-defined aromatic band centered at 280 nm broadened over the reaction time and extended beyond 330 nm with some residual absorption in the region 350-500 nm. Extension towards the visible range is associated with the extension of the aromatic system as could be expected in the event of oligomerization. After 6 hours no change was observed and the reaction reaches levels close to 90% of conversion after approximately 2 hours. If MPO was used instead of HRP, the obtained results (see FIG. 20C) were similar.
# [2] = target: T2, horseradish peroxidase (HRP) (Armoracia rusticana, UniProt P00433); experiment: Ga-3 as oxidoreductase reducing substrate, UV-visible spectra with HRP/H2O2; format: biochemical; design: purchased Sigma; details: after approximately 2 hours
# T2 sequence (P00433 31-338): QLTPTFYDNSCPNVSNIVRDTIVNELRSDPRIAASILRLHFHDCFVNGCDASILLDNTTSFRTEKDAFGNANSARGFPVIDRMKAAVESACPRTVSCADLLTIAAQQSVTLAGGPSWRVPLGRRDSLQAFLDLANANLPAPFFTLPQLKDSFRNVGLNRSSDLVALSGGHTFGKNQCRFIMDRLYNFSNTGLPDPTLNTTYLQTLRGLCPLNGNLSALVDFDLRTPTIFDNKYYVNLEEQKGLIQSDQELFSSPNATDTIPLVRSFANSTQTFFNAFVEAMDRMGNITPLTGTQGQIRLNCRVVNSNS
# From the text: as §1
# [3] = target: T3, human MPO embedded in Matrigel (Homo sapiens, UniProt P05164); experiment: MPO/Matrigel implant mouse model, T1-weighted MR imaging; format: in vivo; details: mice, right MPO/Matrigel vs left control, 1.5 T
# T3 construct: purchased BioDesign, Inc
# T3 sequence (P05164 49-745): T1 sequence (P05164 49-745)
# Method: To evaluate the monomeric substrates in vivo, we devised a mouse model that harbored 400 μL of Matrigel basement membrane matrix gel mixed 1:1 by volume with a solution containing 15 U of human MPO and glucose oxidase (as a source of hydrogen peroxide) that was injected into the right flank of the mouse. The left flank was injected with the enzyme-free Matrigel mixture. We subsequently performed T1-weighted MR imaging after the intravenous injection of Gd-DTPA-diSer substrate at the dose of […].
# (§2) The MR imaging experiments were performed on a 1.5 T GE Excite scanner and a 4.7 T Bruker Pharmascan scanner. For all MR imaging experiments, precontrast T2-(TR=2000, TE=100, ETL=8, NEX=4, fast spin echo sequence) and T1-weighted images (TR=500, TE=11, NEX=4, spin echo sequence) with fat saturation were initially performed to locate the gels or area of inflammation. The substrates (0.3 mmol/kg) were subsequently injected via the tail vein of the mouse. The mouse was immediately imaged after the injection of the contrast agent using multiple T1-weighted sequences with fat saturation for at least 3 hours.
# Ten-week old C57BL6 male mice were obtained from Jackson Laboratories. A total of 22 mice were used for the study. • 1. MPO/Matrigel imaging experiments: Matrigel™ (Beckton-Dickinson), a […] basement membrane matrix gel was used to immobilize human MPO and glucose oxidase (to supply H2O2 required for detecting MPO oxidative activity, Calbiochem). This was chosen to reflect deposits of human MPO in inflamed tissue in a mouse model. 400 μL of a mixture of Matrigel™ and MEM (Cambrex) was injected slowly into the thighs of each mouse one hour prior to imaging. The right thigh mixture also contained 15 U of MPO and 4 U of glucose oxidase (Calbiochem), while the left thigh mixture contained no enzyme and thus serves as an internal control. A total of 15 mice were used (3 mice each for 5-HT-DOTA(Gd), bis-5-HT-DTPA(Gd), bis-5-HT-DTPA-^111In, bis-tyramide-DTPA(Gd), and DTPA(Gd)). • 2. LPS/Matrigel experiments (n=3): This model was developed to induce endogeneous mouse MPO secretion and activation. 200 μL total volume Matrigel containing 10% heparin was injected slowly into the thighs of the mice 4 days prior to imaging. The right-sided mixture also contained E. coli lipopolysaccharide (LPS) at 10 μg/mL. One mouse was sacrificed for immunohistochemistry. • 3. Myositis experiments (n=4): LPS at 100 μg/mL in PBS was injected into each mouse intramuscularly in the right flank to produce myositis. The mice are imaged 24 hours after injection.
# For normalized signal intensity measured on T1-weighted images, mean±standard deviation (SD) values were calculated in regions of interest (ROI). Contrast-to-noise (CNR) ratios were computed for each ROI according to the formula
# endogenous mouse MPO [4] = target: T4, endogenous mouse MPO (Mus musculus, UniProt P11247); experiment: LPS/Matrigel experiments, MR imaging; format: in vivo; details: mice; LPS/Matrigel
# T4 construct: endogenous in cells; host or cells: inflammatory cells recruited by LPS in C57BL6 male mice (Matrigel site in the thigh, or flank muscle myositis)
# T4 sequence (P11247 139-718): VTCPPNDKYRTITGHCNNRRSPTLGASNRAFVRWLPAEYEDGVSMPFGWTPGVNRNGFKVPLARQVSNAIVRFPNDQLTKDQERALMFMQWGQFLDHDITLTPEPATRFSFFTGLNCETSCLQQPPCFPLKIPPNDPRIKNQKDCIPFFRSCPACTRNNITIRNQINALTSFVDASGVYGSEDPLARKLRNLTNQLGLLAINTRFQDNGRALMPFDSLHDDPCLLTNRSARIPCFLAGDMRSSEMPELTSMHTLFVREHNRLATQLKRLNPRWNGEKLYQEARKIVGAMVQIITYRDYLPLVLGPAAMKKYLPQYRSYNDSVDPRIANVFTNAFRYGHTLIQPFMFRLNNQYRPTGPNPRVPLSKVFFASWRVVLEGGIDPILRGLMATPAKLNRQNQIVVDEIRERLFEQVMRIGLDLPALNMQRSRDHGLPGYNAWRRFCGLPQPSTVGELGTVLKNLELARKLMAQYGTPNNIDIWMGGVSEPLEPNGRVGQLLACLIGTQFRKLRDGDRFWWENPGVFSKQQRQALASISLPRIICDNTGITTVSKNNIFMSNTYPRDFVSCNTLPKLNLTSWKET
# Method: as §2
# (§3) Ten-week old C57BL6 male mice were obtained from Jackson Laboratories. A total of 22 mice were used for the study. • 1. MPO/Matrigel imaging experiments: Matrigel™ (Beckton-Dickinson), a […] basement membrane matrix gel was used to immobilize human MPO and glucose oxidase (to supply H2O2 required for detecting MPO oxidative activity, Calbiochem). This was chosen to reflect deposits of human MPO in inflamed tissue in a mouse model. 400 μL of a mixture of Matrigel™ and MEM (Cambrex) was injected slowly into the thighs of each mouse one hour prior to imaging. The right thigh mixture also contained 15 U of MPO and 4 U of glucose oxidase (Calbiochem), while the left thigh mixture contained no enzyme and thus serves as an internal control. […]
# endogenous mouse MPO [5] = target: T4, endogenous mouse MPO; experiment: LPS induced myositis, MR imaging at 4.7 T; format: in vivo; details: mice with LPS induced myositis
# Method: as §2, §3
# MPO [6] = target: T1, MPO; experiment: SPECT/CT imaging of MPO/Matrigel implants with 67Ga tracer; format: in vivo, mouse
# Method: SPECT imaging and biodistribution: A solution of 80-100 μCi of [^67Ga]—I in 200 μl of saline were injected intravenously into mice prepared as follows: ten-week old C57BL6 male mice (Jackson Laboratories) were injected with 400 μL of a mixture of Matrigel™ (Beckton-Dickinson) and MEM (Cambrex) into the thighs of each mouse one hour prior to imaging. The right thigh mixture also contained 15 U of MPO and 4 μg of glucose oxidase (Calbiochem), while the left thigh mixture contained no enzyme to serve as an internal control. Glucose oxidase was included to ensure local generation of hydrogen peroxide. […] Six hours after injection, the animals were sacrificed and biodistribution was determined in major organs. The % dose accumulated per gram of major organs was determined by using a gamma counter.
# To test our hypothesis in vivo, we prepared an inflammation model in mice. The model consisted in the subcutaneous implantation (1 hour before radiotracer injection) of Matrigel/MPO/GO mixture in the right thigh of each mouse. The left thigh mixture contained no enzyme and served as internal control. Matrigel is a basement membrane matrix gel that can be used for immobilizing human MPO and peroxide-generating enzyme. After injecting [^67Ga]—I intravenously, SPECT/CT imaging was performed 4 hours later.
# [7] = Biodistribution of 67Ga tracer; format: in vivo, mouse; details: mice n=4; 6 hours after the injection
# Method: SPECT imaging and biodistribution: A solution of 80-100 μCi of [^67Ga]—I in 200 μl of saline were injected intravenously into mice prepared as follows: ten-week old C57BL6 male mice (Jackson Laboratories) were injected with 400 μL of a mixture of Matrigel™ (Beckton-Dickinson) and MEM (Cambrex) into the thighs of each mouse one hour prior to imaging. The right thigh mixture also contained 15 U of MPO and 4 μg of glucose oxidase (Calbiochem), while the left thigh mixture contained no enzyme to serve as an internal control. Glucose oxidase was included to ensure local generation of hydrogen peroxide. The animals were imaged 3 hours after injection on a high resolution X-SPECT/CT system (Gamma Medica). Six hours after injection, the animals were sacrificed and biodistribution was determined in major organs. The % dose accumulated per gram of major organs was determined by using a gamma counter.
smiles,measurement,setting,value
CC(=O)N1CCCCCNC(=O)CCC(=O)N2CCCCCNC(=O)CCC(=O)N(CCCCCNC(=O)Cc3c[nH]c4ccc(O)cc34)[O][Ga]([O]1)[O]2 [Ga-3],result with MPO compared with HRP,MPO [1],similar
same,conversion,[2],~90%
"O=C([O-])CN(CCN(CC(=O)[O-])CC(=O)O)CCN(CC(=O)[O-])CC(=O)O.[Gd+3] [DTPA(Gd), reference compound]",enhancement of MPO implant compared with control implant,[3],no visual difference or CNR difference
same,enhancement of MPO implant compared with control implant,[3]; listed as Magnevist,did not show any difference
same,difference in enhancement LPS side vs control,endogenous mouse MPO [4],no significant difference in enhancement
same,enhancement at 50 minutes after injection,endogenous mouse MPO [5],significant wash-out of the enhancement
CC(=O)N1CCCCCNC(=O)CCC(=O)N2CCCCCNC(=O)CCC(=O)N(CCCCCNC(=O)Cc3c[nH]c4ccc(O)cc34)[O][67Ga]([O]1)[O]2 [[^67Ga]-3],difference between right (MPO) and left (control) thigh,"MPO [6]; mice, 6 hours after the injection",around 60%
same,intensity of MPO implant vs control implant,MPO [6]; mouse SPECT/CT fusion images,higher intensity
same,residual radioactivity in liver,[7],~1.4%
same,residual radioactivity in the bowel,[7],~7.8%
same,residual radioactivity in the rest of the organs,[7],below 0.5%
